Measurements published in patent US12097200B2, “Combination of BI853520 with chemotherapeutic drugs” (INXMED (NANJING) CO., LTD., priority 2020, dated 2024).
Values joined by “and” are separate entries in the source; they are usually repeats but may differ in a detail not shown here. Equal values may be shown once. “Also recorded” adds a separate entry of the source.

Experiments:
KYSE-270 cells = test: Antitumor activity in mouse xenograft model of human esophageal cancer (KYSE-270); assay type: in vivo; details: KYSE-270 xenograft
Excerpt: (§1) For tumor volume, absolute values were used.
(§2) Appropriate statistical methods were used for evaluation.
Mice were approximately 8-10 weeks old.
KYSE-270 was a cell line for esophageal cancer (Public Health England, Cat. No. 94072021).

NCI-H520 cells = details: NCI-H520 xenograft, day 22, combination of both
Experimental: Mice were approximately 6 weeks old. There were 5 mice in each group.
The cell concentration of the culture was maintained between 8×10^6 to 12×10^7 cells/tissue culture flask.
Cisplatin was dissolved in 0.9% saline.
Statistical evaluation was performed using the Student's t-test function in Microsoft Excel, utilizing a two-tailed distribution and a two-sample equal variance type.

[1] = system: GXA 3039 gastric cancer PDX model
Experimental: Mice were housed in individual ventilated cages ([sequence] Sealsafe™-IVC-System, [sequence], Hohenpeissenberg, Germany), and type II or III cages were selected according to the number of experimental animals. The cages were under the conditions: 14L:10D light-dark cycle, air exchange (AC) rate of 60-65 AC/hr in the cage, 25±1° C. and 40-70% humidity. […] Water and diet were changed twice a week, and all materials were autoclaved before use.
Tumor fragments were implanted subcutaneously into the flank of female pre-study mice. […] Animals that were not randomized were euthanized. The date of randomization was designated as day 0 of the test, and dosing began on day 1. […] If less than 70% of the original number of mice survived (i.e. less than 6 out of 8), the entire group was terminated. […] Tolerability was assessed using the group with the largest median body weight loss (BWL) among groups.
Inhibition of tumor growth was determined by calculating TGI.
Additional endpoints used to assess efficacy included: time to tumor volume doubling/quadrupling and tumor growth delay/time to tumor progression/tumor repopulation.
Time to tumor volume doubling/quadrupling: The time to tumor volume doubling/quadrupling (Td/Tq) for the test and control groups was defined as the time interval (in days) required for each group to reach 200%/400% of the median RTV. The relative volume of a single tumor on day X (RTVx [%]) was obtained by dividing the absolute volume of the tumor on day X (Tx) by the absolute volume of the tumor on day 0 (T0) and then multiplying it by 100, as follows:
Tumor growth delay/time to tumor progression/tumor repopulation: To assess the difference in time to tumor progression/tumor repopulation after tumor regression during the no-dose observation period (tumor growth delay, TGD), Kaplan-Meier survival analysis was used. A relative tumor volume of 400% was defined as the endpoint.
The control group for oral administration was 0.5% Natrosol. The control group for intravenous administration was 0.9% saline. Each dose was 10 ml/kg.
Data were used for statistical analysis at the end of the study. The one-tailed nonparametric Mann-Whitney-Wilcoxon U test was used with the significance level a set at 0.05. The p-values obtained from the U-test were adjusted using the Bonferroni-Holm correction.
To assess the statistical significance of differences in time to tumor progression/tumor growth delay (TGD) using 400% of RTV as the trial endpoint, the Kaplan-Meier survival mode statistic was used in conjunction with the log-rank Mantel-Cox test for pairwise comparisons.
Additionally, to assess tolerance to treatment, a two-tailed nonparametric Mann-Whitney-Wilcoxon U test was performed using body weights determined at the end of the dosing period (i.e., on the day TGI values were calculated).
By convention, p-values≤0.05 represented significant tumor inhibition or weight loss.

KYSE-70 cells = test: Antitumor activity in mouse xenograft model of human esophageal cancer (KYSE-70); assay type: in vivo; details: KYSE-70 xenograft, combination of both
HS 746T cells = test: Antitumor activity in mouse xenograft model of human gastric cancer (HS 746T); assay type: in vivo; details: HS 746T xenograft, combination of both
Excerpt: as §1, §2
HS 746T: Approximately 6 week old mice.

[2] = BI 853520 50 mg/kg qd, paclitaxel 10 mg/kg q7d, combination of both
[3] = BI 853520 50 mg/kg qd, cisplatin 5 mg/kg IP q7d
[4] = BI 853520 50 mg/kg qd, docetaxel 10 mg/kg q7d

CC(=O)O[C@H]1C(=O)[C@@]2(C)[C@H]([C@H](OC(=O)c3ccccc3)[C@]3(O)C[C@H](OC(=O)[C@H](O)[C@@H](NC(=O)c4ccccc4)c4ccccc4)C(C)=C1C3(C)C)[C@]1(OC(C)=O)CO[C@@H]1C[C@@H]2O [Paclitaxel]
Median tumor volume (KYSE-270 cells; day 13, BI 853520 50 mg/kg qd by gavage, paclitaxel 10 mg/kg q7d i.v., combination of both): 1033 mm^3
TGI (KYSE-270 cells; day 13, BI 853520 50 mg/kg qd, paclitaxel 10 mg/kg q7d, combination of both): 2%
Antitumor effect (in words) (KYSE-270 cells; [2]): no effect on tumor growth; also recorded: had no effect
Change in median body weight (KYSE-270 cells; [2]): −9.7%
Tumor regression (animals with regression/animals in group) (KYSE-270 cells; [2]): no tumor regression and 0/7
Animal body weight decreased by (KYSE-270 cells; paclitaxel 10 mg/kg q7d, value is a decrease): 9.7%

N.N.[Cl][Pt][Cl] [Cisplatin, reference compound]
Median tumor volume (NCI-H520 cells; BI 853520 50 mg/kg qd by gavage, cisplatin 5 mg/kg IP once a week): 228 mm^3
Median TGI (NCI-H520 cells; [3]): 74%
Tumor regression (animals with regression/animals in group) (NCI-H520 cells; [3]): 0/7

CC(=O)O[C@@]12CO[C@@H]1C[C@H](O)[C@@]1(C)C(=O)[C@H](O)C3=C(C)[C@@H](OC(=O)[C@H](O)[C@@H](NC(=O)OC(C)(C)C)c4ccccc4)C[C@@](O)([C@@H](OC(=O)c4ccccc4)[C@H]21)C3(C)C [Docetaxel, reference compound]
Td (time to tumor volume doubling) ([1]; GXA 3039 PDX, time to 200% of median RTV, doses as Table 8): 8.5 days
Tq (time to tumor volume quadrupling) ([1]; GXA 3039 PDX, time to 400% of median RTV, nr = not reached until end of test, doses as Table 8): 108.0 days
TGI [%] (d) ([1]; GXA 3039 gastric cancer PDX, day 36, BI 853520 50 mg/kg/d PO days 1-35, docetaxel 10 mg/kg IV days 1, 8, 15, 22, 29, combination of both): 113% and 113(36) %
Survival rate ([1]; female, BomTac:NMRI-Foxn1nu, mouse, in vivo): 2/8
Median BWL maximum ([1]; mouse, in vivo): 2.1%
Median BWL maximum, day ([1]; mouse, in vivo): 2 days
Median tumor volume (KYSE-70 cells; day 42, BI 853520 50 mg/kg qd by gavage, docetaxel 10 mg/kg q7d i.v.): 73 mm^3
Antitumor effect (in words) (KYSE-70 cells; [4]): had inhibitory effect
Change in median body weight (KYSE-70 cells; [4]): 5.6%
TGI (KYSE-70 cells; [4]): 100%
Median tumor volume (HS 746T cells; day 24 (withdrawal on day 28), BI 853520 50 mg/kg qd by gavage, docetaxel 10 mg/kg q7d i.v.): 0 mm^3
Antitumor effect (in words) (HS 746T cells; [4]): had inhibitory effect
Change in median body weight (HS 746T cells; [4]): 6.7%
TGI (HS 746T cells; [4]): 108%
